Earlier results on 1 molecule are cited in patent publication US6479045B2, “Vaginal pH buffering for preventing miscarriage and premature labor, by treating or preventing bacterial vaginosis” (Columbia Laboratories, Inc., priority 1999, dated 2002).

The series relates to Bacterial Vaginosis. Conditions: within one month.

For `Cc1ncc([N+](=O)[O-])n1CCO` [metronidazole], the cure rate result is given as “approximately 70%”.
